Target: T1, SPT (serine palmitoyltransferase) (Sphingomonas paucimobilis, UniProt Q93UV0)
T1 construct: soluble homodimer
Experiment: HPLC-HRMS of 3-ketodihydrosphingosine; coupled PPi assay
Type: biochemical
Conditions: pH 7.5, 37°C

T1 sequence (Q93UV0 whole entry): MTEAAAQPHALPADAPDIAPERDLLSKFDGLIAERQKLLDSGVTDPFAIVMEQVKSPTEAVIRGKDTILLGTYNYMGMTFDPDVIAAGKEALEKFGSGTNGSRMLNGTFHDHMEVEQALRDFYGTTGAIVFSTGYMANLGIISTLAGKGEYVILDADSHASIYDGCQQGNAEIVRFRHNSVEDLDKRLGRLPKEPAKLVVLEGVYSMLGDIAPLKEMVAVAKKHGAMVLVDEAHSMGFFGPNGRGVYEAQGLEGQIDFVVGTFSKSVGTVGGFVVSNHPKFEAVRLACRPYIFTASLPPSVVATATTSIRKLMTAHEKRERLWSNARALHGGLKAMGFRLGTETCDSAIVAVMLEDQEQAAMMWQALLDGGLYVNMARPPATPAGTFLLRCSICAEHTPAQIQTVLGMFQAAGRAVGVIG

Row | Compound | HPLC-HRMS of 3-ketodihydrosphingosine; coupled PPi assay (with palmitoyl-CoA regenerated by FadD, serine concentration varied) | HPLC-HRMS of 3-ketodihydrosphingosine; coupled PPi assay (5 mM serine, palmitoyl-CoA regenerated by FadD)
1 | N[C@@H](CO)C(=O)O [serine] | we verified the production of 3-ketodihydrosphingosine by our SPT reaction | 
2 | CCCCCCCCCCCCCCCC(=O)SCCNC(=O)CCNC(=O)[C@H](O)C(C)(C)COP(=O)(O)OP(=O)(O)OC[C@H]1O[C@@H](n2cnc3c(N)ncnc32)[C@H](O)[C@@H]1OP(=O)(O)O [palmitoyl-CoA] |  | we verified the production of 3-ketodihydrosphingosine by our SPT reaction
